# Legend:
# Format in all cases: in vivo
# [1] = test system: barnyardgrass (Echinochloa crus-galli); experiment: Test A pre-/postemergence plant response
# How it was run: (§1)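 Pre: directed soil spray on seeded loam/sand blend. Post: same formulation (non-phytotoxic solvent + surfactant) on 2–10 cm plants, 1–2 leaf stage. Greenhouse ~10 d; visual injury score 0–100 vs untreated.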
# [2] = test system: morningglory (Ipomoea spp.); experiment: Test A pre-/postemergence plant response
# How it was run: as §1
# [3] = test system: velvetleaf (Abutilon theophrasti); experiment: Test A pre-/postemergence plant response
# How it was run: as §1
# [4] = test system: wheat (Triticum aestivum); experiment: Test A pre-/postemergence plant response
# How it was run: as §1
# [5] = test system: large crabgrass (Digitaria sanguinalis); experiment: Test A pre-/postemergence plant response
# How it was run: as §1
# corn (Zea mays) = experiment: Test A pre-/postemergence plant response
# How it was run: as §1
# [6] = test system: pigweed (Amaranthus retroflexus); experiment: Test A pre-/postemergence plant response
# How it was run: as §1
# [7] = test system: giant foxtail (Setaria faberii); experiment: Test A pre-/postemergence plant response
# How it was run: as §1
# [8] = test system: wheat (Triticum aestivum); experiment: Test B pre-/postemergence plant response
# How it was run: (§2)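 Visually scored on a 0 to 100 scale after 13 to 15 days in greenhouse versus controls. Treatments were preemergence on seeded loam/sand soil and postemergence on 1- to 4-leaf plants.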
# [9] = test system: bermudagrass (Cynodon dactylon); experiment: Test B pre-/postemergence plant response
# How it was run: as §2
# [10] = test system: cocklebur (Xanthium strumarium); experiment: Test B pre-/postemergence plant response
# How it was run: as §2
# [11] = Postemergence, 125 g ai/ha, visual injury, 0 to 100 scale (0 no effect, 100 complete control), approx. ten days
# [12] = Postemergence, 500 g ai/ha, 0 to 100 scale, 0 = no effect, 100 = complete control, approx. ten days
# [13] = Preemergence, 125 g ai/ha, 0 to 100 scale, 0 = no effect, 100 = complete control
# [14] = Preemergence, 500 g ai/ha, visual injury, 0 to 100 scale (0 no effect, 100 complete control), approx. ten days
# [15] = 250 g ai/ha, Preemergence, 0 to 100 scale
# [16] = Postemergence, 31 g ai/ha, scale 0 to 100 (0 no effect, 100 complete control)
# [17] = Postemergence, 62 g ai/ha, scale 0 (no effect) to 100 (complete control), 13 to 15 days
# [18] = Postemergence, 125 g ai/ha, visual rating after 13 to 15 days, scale 0 (no effect) to 100 (complete control)
# [19] = Postemergence, 250 g ai/ha, scale 0 to 100
# [20] = Preemergence, 31 g ai/ha, scale 0 to 100 (0 no effect, 100 complete control)
# [21] = Preemergence, 62 g ai/ha, scale 0 to 100, 0 no effect, 100 complete control
# [22] = Preemergence, 125 g ai/ha, 0 to 100 scale
# [23] = 31 g ai/ha, postemergence, scale 0 to 100, 0 is no effect, 100 is complete control
# [24] = Postemergence, 250 g ai/ha, scale 0 to 100 (0 no effect, 100 complete control)
smiles,measurement,setting,value
O=C1CCCC(O)=C1C(=O)c1cnc(-c2ccccc2)n(-c2ccc(F)cc2)c1=O [Compound 24],Barnyardgrass plant response rating,[1]; [11],10
same,"Plant response rating, Barnyardgrass",[1]; [12],70
same,"Plant response rating, Barnyardgrass",[1]; [13],10
same,"Plant response rating, Barnyardgrass",[1]; [14],90
same,Morningglory plant response rating,[2]; [11],70
same,"Plant response rating, Morningglory",[2]; [12],100
same,"Plant response rating, Morningglory",[2]; [13],20
same,"Plant response rating, Morningglory",[2]; [14],80
same,Velvetleaf plant response rating,[3]; [11],100
same,"Plant response rating, Velvetleaf",[3]; [12],100
same,"Plant response rating, Velvetleaf",[3]; [13],90
same,"Plant response rating, Velvetleaf",[3]; [14],100
same,Wheat plant response rating,[4]; [11],0
same,"Plant response rating, Wheat",[4]; [12],30
same,"Plant response rating, Wheat",[4]; [13],0
same,"Plant response rating, Wheat",[4]; [14],20
same,"Crabgrass, Large plant response rating",[5]; [11],70
same,"Plant response rating, Crabgrass, Large",[5]; [12],90
same,"Plant response rating, Crabgrass, Large",[5]; [13],30
same,"Plant response rating, Crabgrass, Large",[5]; [14],100
same,Corn plant response rating,corn (Zea mays); [11],0
same,"Plant response rating, Corn",corn (Zea mays); [12],30
same,"Plant response rating, Corn",corn (Zea mays); [13],0
same,"Plant response rating, Corn",corn (Zea mays); [14],0
same,Pigweed plant response rating,[6]; [11],90
same,"Plant response rating, Pigweed",[6]; [12],100
same,"Plant response rating, Pigweed",[6]; [13],90
same,"Plant response rating, Pigweed",[6]; [14],100
same,"Foxtail, Giant plant response rating",[7]; [11],70
same,"Plant response rating, Foxtail, Giant",[7]; [12],90
same,"Plant response rating, Foxtail, Giant",[7]; [13],40
same,"Plant response rating, Foxtail, Giant",[7]; [14],100
same,"Plant response rating, Wheat",[8]; [15],0
same,"Plant response rating, Wheat",[8]; [16],5
same,"Plant response rating, Wheat",[8]; [17],10
same,"Plant response rating, Wheat",[8]; [18],30
same,Wheat plant response rating,[8]; [19],50
same,"Plant response rating, Wheat",[8]; [20],0
same,"Plant response rating, Wheat",[8]; [21],0
same,Wheat plant response rating,[8]; [22],0
same,"Plant response rating, Bermudagrass",[9]; [15],100
same,"Plant response rating, Bermudagrass",[9]; [16],85
same,"Plant response rating, Bermudagrass",[9]; [17],95
same,"Plant response rating, Bermudagrass","[9]; Postemergence, 125 g ai/ha, scale 0 to 100 (0 no effect, 100 complete control), 13 to 15 days",100
same,Bermudagrass plant response rating,[9]; [19],100
same,"Plant response rating, Bermudagrass",[9]; [20],95
same,"Plant response rating, Bermudagrass",[9]; [21],100
same,Bermudagrass plant response rating,[9]; [22],100
same,"Plant response rating, Cocklebur",[10]; [15],95
same,"Plant response rating, Cocklebur",[10]; [16],90
same,"Plant response rating, Cocklebur",[10]; [17],98
same,"Plant response rating, Cocklebur",[10]; [18],98
same,Cocklebur plant response rating,[10]; [19],100
same,"Plant response rating, Cocklebur",[10]; [20],10
same,Cocklebur plant response rating,[10]; [22],95
O=C1CCCC(O)=C1C(=O)c1cnc(-c2ccccc2)n(-c2ccccc2Br)c1=O [Compound 37],Barnyardgrass plant response rating,[1]; [11],50
same,"Plant response rating, Barnyardgrass",[1]; [12],90
same,"Plant response rating, Barnyardgrass",[1]; [13],0
same,"Plant response rating, Barnyardgrass",[1]; [14],30
same,Morningglory plant response rating,[2]; [11],80
same,"Plant response rating, Morningglory",[2]; [12],100
same,"Plant response rating, Morningglory",[2]; [13],0
same,"Plant response rating, Morningglory",[2]; [14],30
same,Velvetleaf plant response rating,[3]; [11],100
same,"Plant response rating, Velvetleaf",[3]; [12],100
same,"Plant response rating, Velvetleaf",[3]; [13],50
same,"Plant response rating, Velvetleaf",[3]; [14],90
same,Wheat plant response rating,[4]; [11],0
same,"Plant response rating, Wheat",[4]; [12],0
same,"Plant response rating, Wheat",[4]; [13],0
same,"Plant response rating, Wheat",[4]; [14],0
same,"Crabgrass, Large plant response rating",[5]; [11],70
same,"Plant response rating, Crabgrass, Large",[5]; [12],100
same,"Plant response rating, Crabgrass, Large",[5]; [13],10
same,"Plant response rating, Crabgrass, Large",[5]; [14],50
same,Corn plant response rating,corn (Zea mays); [11],0
same,"Plant response rating, Corn",corn (Zea mays); [12],40
same,"Plant response rating, Corn",corn (Zea mays); [13],0
same,"Plant response rating, Corn",corn (Zea mays); [14],0
same,Pigweed plant response rating,[6]; [11],100
same,"Plant response rating, Pigweed",[6]; [12],100
same,"Plant response rating, Pigweed",[6]; [13],50
same,"Plant response rating, Pigweed",[6]; [14],100
same,"Foxtail, Giant plant response rating",[7]; [11],70
same,"Plant response rating, Foxtail, Giant",[7]; [12],90
same,"Plant response rating, Foxtail, Giant",[7]; [13],10
same,"Plant response rating, Foxtail, Giant",[7]; [14],50
same,"Plant response rating, Wheat",[8]; [15],0
same,"Plant response rating, Wheat",[8]; [17],0
same,"Plant response rating, Wheat",[8]; [18],0
same,"Plant response rating, Wheat",[8]; [20],0
same,Wheat plant response rating,[8]; [22],0
same,"Plant response rating, Bermudagrass",[9]; [15],100
same,"Plant response rating, Bermudagrass",[9]; [16],85
same,"Plant response rating, Bermudagrass",[9]; [17],90
same,"Plant response rating, Bermudagrass",[9]; [18],98
same,Bermudagrass plant response rating,[9]; [19],100
same,"Plant response rating, Bermudagrass",[9]; [20],10
same,"Plant response rating, Bermudagrass",[9]; [21],80
same,Bermudagrass plant response rating,[9]; [22],98
same,"Plant response rating, Cocklebur",[10]; [15],45
same,"Plant response rating, Cocklebur",[10]; [20],0
same,Cocklebur plant response rating,[10]; [22],0
Cc1ccc(F)c(-n2c(-c3ccccc3)ncc(C(=O)C3=C(O)CCCC3=O)c2=O)c1 [Compound 51],Barnyardgrass plant response rating,[1]; [11],90
same,"Plant response rating, Barnyardgrass",[1]; [12],90
same,"Plant response rating, Barnyardgrass",[1]; [13],10
same,"Plant response rating, Barnyardgrass",[1]; [14],90
same,Morningglory plant response rating,[2]; [11],100
same,"Plant response rating, Morningglory",[2]; [12],100
same,"Plant response rating, Morningglory",[2]; [14],90
same,Velvetleaf plant response rating,[3]; [11],100
same,"Plant response rating, Velvetleaf",[3]; [12],100
same,"Plant response rating, Velvetleaf",[3]; [13],70
same,"Plant response rating, Velvetleaf",[3]; [14],90
same,Wheat plant response rating,[4]; [11],0
same,"Plant response rating, Wheat",[4]; [12],0
same,"Plant response rating, Wheat",[4]; [13],0
same,"Plant response rating, Wheat",[4]; [14],0
same,"Crabgrass, Large plant response rating",[5]; [11],90
same,"Plant response rating, Crabgrass, Large",[5]; [12],100
same,"Plant response rating, Crabgrass, Large",[5]; [13],30
same,"Plant response rating, Crabgrass, Large",[5]; [14],100
same,Corn plant response rating,corn (Zea mays); [11],0
same,"Plant response rating, Corn",corn (Zea mays); [12],80
same,"Plant response rating, Corn",corn (Zea mays); [13],0
same,"Plant response rating, Corn",corn (Zea mays); [14],0
same,Pigweed plant response rating,[6]; [11],100
same,"Plant response rating, Pigweed",[6]; [12],100
same,"Plant response rating, Pigweed",[6]; [13],90
same,"Plant response rating, Pigweed",[6]; [14],100
same,"Foxtail, Giant plant response rating",[7]; [11],90
same,"Plant response rating, Foxtail, Giant",[7]; [12],90
same,"Plant response rating, Foxtail, Giant",[7]; [13],30
same,"Plant response rating, Foxtail, Giant",[7]; [14],100
same,"Plant response rating, Wheat",[8]; [23],5
same,"Plant response rating, Wheat",[8]; [15],10
same,"Plant response rating, Wheat",[8]; [17],10
same,"Plant response rating, Wheat",[8]; [18],10
same,"Plant response rating, Wheat",[8]; [24],30
same,"Plant response rating, Wheat",[8]; [20],0
same,Wheat plant response rating,[8]; [22],0
same,"Plant response rating, Bermudagrass",[9]; [23],80
same,"Plant response rating, Bermudagrass",[9]; [15],100
same,"Plant response rating, Bermudagrass",[9]; [17],90
same,"Plant response rating, Bermudagrass",[9]; [18],90
same,"Plant response rating, Bermudagrass",[9]; [24],98
same,"Plant response rating, Bermudagrass",[9]; [20],95
same,"Plant response rating, Bermudagrass",[9]; [21],98
same,Bermudagrass plant response rating,[9]; [22],100
same,"Plant response rating, Cocklebur",[10]; [23],85
same,"Plant response rating, Cocklebur",[10]; [15],75
same,"Plant response rating, Cocklebur",[10]; [17],85
same,"Plant response rating, Cocklebur",[10]; [18],90
same,"Plant response rating, Cocklebur",[10]; [24],90
same,"Plant response rating, Cocklebur",[10]; [20],0
same,"Plant response rating, Cocklebur",[10]; [21],0
same,Cocklebur plant response rating,[10]; [22],20
